Measured values reported in BindingDB's records for doi:10.1021/jm00106a047 (Purdue University, 1991).

molecular target: Tyrosine-protein kinase Lck (Bos taurus); assay: Ability to inhibit protein-tyrosine kinase activity of p56lck (isolated from bovine thymus) in vitro.

| Structure (SMILES) | IC50 |
| --- | --- |
| CCOC(=O)CC(=O)c1ccccc1O | > 2000 µM |
| COC(=O)c1c(-c2ccc(N)cc2)oc2ccccc2c1=O | 810 µM |
| COc1ccc2c(=O)c(C(=O)O)c(-c3ccc([N+](=O)[O-])cc3)oc2c1 | > 2000 µM |
| COc1ccc2c(=O)c(C(=O)O)c(-c3ccc(O)cc3)oc2c1 | 1030 µM |
| COC(=O)c1c(-c2ccc([N+](=O)[O-])cc2)oc2cc(OCc3ccccc3)cc(OCc3ccccc3)c2c1=O | > 2000 µM |
| COC(=O)c1c(-c2ccc(O)cc2)oc2cc(OC)ccc2c1=O | > 2000 µM |
| O=c1cc(-c2ccc([N+](=O)[O-])cc2)oc2cc(O)ccc12 | > 2000 µM |
| COc1cc(-c2oc3ccccc3c(=O)c2C(=O)O)cc(OC)c1OC | > 2000 µM |
| COC(=O)c1c(-c2ccc(NC(C)=O)cc2)oc2ccc(OC)cc2c1=O | > 2000 µM |
| COC(=O)c1c(-c2ccc(Br)cc2)oc2ccccc2c1=O | > 2000 µM |
| COC(=O)CC(=O)c1cc(OC)ccc1O | > 2000 µM |
| O=C(O)c1c(-c2ccc([N+](=O)[O-])cc2)oc2cc(O)cc(=O)c-2c1O | > 2000 µM |
| COc1cc(OC)cc(-c2oc3ccccc3c(=O)c2C(=O)O)c1 | > 2000 µM |
| O=c1cc(-c2ccc([N+](=O)[O-])cc2)oc2ccc(O)cc12 | > 2000 µM |
| COC(=O)c1c(-c2cc(OC)cc(OC)c2)oc2ccccc2c1=O | > 2000 µM |
| COC(=O)c1c(-c2cc(OC)c(OC)c(OC)c2)oc2ccccc2c1=O | > 2000 µM |
| COC(=O)c1c(-c2ccc(NC(=O)c3cc(OC)c(OC)c(OC)c3)cc2)oc2ccccc2c1=O | > 2000 µM |
| COC(=O)CC(=O)c1ccccc1O | > 2000 µM |
| O=C(O)c1c(-c2ccc(Br)cc2)oc2ccccc2c1=O | > 2000 µM |

| Structure (SMILES) | IC50 |
| --- | --- |
| COC(=O)CC(=O)c1ccc(OC)cc1O | 1160 µM |
| COC(=O)CC(=O)c1ccc(O)c(O)c1O | > 2000 µM |
| COC(=O)c1c(-c2ccc(O)cc2)oc2ccccc2c1=O | 439 µM |
| COC(=O)c1c(-c2ccc(O)cc2)oc2ccc(OC)cc2c1=O | > 2000 µM |
| COC(=O)c1c(-c2ccc([N+](=O)[O-])cc2)oc2ccccc2c1=O | > 2000 µM |
| O=C(O)c1c(-c2ccc(O)cc2)oc2ccccc2c1=O | 1600 µM |
| COc1ccc2oc(-c3ccc([N+](=O)[O-])cc3)c(C(=O)O)c(=O)c2c1 | > 2000 µM |
| COC(=O)c1c(-c2ccc(OCc3ccccc3)cc2)oc2ccccc2c1=O | > 2000 µM |
| CCOC(=O)CC(=O)c1c(O)cc(OCc2ccccc2)cc1OCc1ccccc1 | > 2000 µM |
| COc1ccc(-c2oc3ccccc3c(=O)c2C(=O)O)cc1OC [2-(3,4-Dimethoxy-phenyl)-4-oxo-4H-chromene-3-carboxylic acid] | > 2000 µM |
| COC(=O)c1c(-c2ccc(OCc3ccccc3)cc2)oc2ccc(OC)cc2c1=O [2-(4-Benzyloxy-phenyl)-6-methoxy-4-oxo-4H-chromene-3-carboxylic acid methyl ester] | > 2000 µM |
| Nc1ccc(-c2cc(=O)c3cc(O)ccc3o2)cc1 [2-(4-aminophenyl)-6-hydroxy-4H-chromen-4-one] | 1.2 µM |
| COc1ccc(-c2oc3ccccc3c(=O)c2C(=O)O)cc1 [2-(4-methoxyphenyl)-4-oxo-4H-chromene-3-carboxylic acid] | > 2000 µM |
| O=C(O)c1c(-c2ccc([N+](=O)[O-])cc2)oc2ccccc2c1=O [2-(4-nitrophenyl)-4-oxo-4H-chromene-3-carboxylic acid] | > 2000 µM |
| COc1cc(-c2cc(=O)c3ccccc3o2)cc(OC)c1O [3',5'-dimethoxy-4'-hydroxyflavone] | 26 µM |
| Nc1ccc(-c2cc(=O)c3ccc(O)cc3o2)cc1 [7-Hydroxy-flavone, 6] | 138 µM |
| COC(=O)c1c(-c2ccc(OC)c(OC)c2)oc2ccccc2c1=O [methyl 2-(3,4-dimethoxyphenyl)-4-oxo-4H-chromene-3-carboxylate] | > 2000 µM |
| COC(=O)c1c(-c2ccc(OC)cc2)oc2ccccc2c1=O [methyl 2-(4-methoxyphenyl)-4-oxo-4H-chromene-3-carboxylate] | > 2000 µM |
| COC(=O)c1c(-c2ccc([N+](=O)[O-])cc2)oc2cc(OC)ccc2c1=O [methyl 7-methoxy-2-(4-nitrophenyl)-4-oxo-4H-chromene-3-carboxylate] | > 2000 µM |
